Assay results taken from patent US20180037568A1, “MODULATORS OF METHYL MODIFYING ENZYMES, COMPOSITIONS AND USES THEREOF” (Constellation Pharmaceuticals, Inc., priority 2015, published 2018).
Like-named read-outs stand apart in the source and are kept apart here.

What was measured:
EZH2 = EZH2 (Homo sapiens, UniProt Q15910); test: EZH2 nuc BSA Brij 1.5 (IC50): rPRC2, biotinylated oligonucleosome substrate, 3H SAM FlashPlate; assay type: biochemical; details: 2 nM EZH2, 0.2 μM biotinylated oligonucleosomes, 0.2 μM 3H SAM, 3.6 μM H3K27me3 peptide
Sequence of EZH2 (Q15910 whole entry): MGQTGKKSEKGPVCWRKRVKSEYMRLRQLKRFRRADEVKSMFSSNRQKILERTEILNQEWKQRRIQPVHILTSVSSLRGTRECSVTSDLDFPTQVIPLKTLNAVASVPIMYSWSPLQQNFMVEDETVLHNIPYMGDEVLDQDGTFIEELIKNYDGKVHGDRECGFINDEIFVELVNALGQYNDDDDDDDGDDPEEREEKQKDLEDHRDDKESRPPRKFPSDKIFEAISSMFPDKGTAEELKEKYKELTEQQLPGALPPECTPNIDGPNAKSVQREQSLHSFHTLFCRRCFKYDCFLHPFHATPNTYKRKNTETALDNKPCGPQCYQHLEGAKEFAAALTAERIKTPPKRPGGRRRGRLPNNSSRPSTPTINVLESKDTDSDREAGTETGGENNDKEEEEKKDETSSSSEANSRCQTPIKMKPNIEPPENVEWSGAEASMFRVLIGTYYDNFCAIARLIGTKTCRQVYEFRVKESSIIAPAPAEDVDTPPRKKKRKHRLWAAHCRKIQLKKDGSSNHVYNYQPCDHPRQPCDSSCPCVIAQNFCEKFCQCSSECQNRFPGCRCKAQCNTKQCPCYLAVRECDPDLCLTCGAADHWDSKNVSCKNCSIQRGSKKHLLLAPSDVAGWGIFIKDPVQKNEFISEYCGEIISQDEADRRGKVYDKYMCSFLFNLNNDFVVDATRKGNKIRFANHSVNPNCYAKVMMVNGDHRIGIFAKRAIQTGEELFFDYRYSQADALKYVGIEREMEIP
Sequence of EZH2 (O75530 whole entry partner): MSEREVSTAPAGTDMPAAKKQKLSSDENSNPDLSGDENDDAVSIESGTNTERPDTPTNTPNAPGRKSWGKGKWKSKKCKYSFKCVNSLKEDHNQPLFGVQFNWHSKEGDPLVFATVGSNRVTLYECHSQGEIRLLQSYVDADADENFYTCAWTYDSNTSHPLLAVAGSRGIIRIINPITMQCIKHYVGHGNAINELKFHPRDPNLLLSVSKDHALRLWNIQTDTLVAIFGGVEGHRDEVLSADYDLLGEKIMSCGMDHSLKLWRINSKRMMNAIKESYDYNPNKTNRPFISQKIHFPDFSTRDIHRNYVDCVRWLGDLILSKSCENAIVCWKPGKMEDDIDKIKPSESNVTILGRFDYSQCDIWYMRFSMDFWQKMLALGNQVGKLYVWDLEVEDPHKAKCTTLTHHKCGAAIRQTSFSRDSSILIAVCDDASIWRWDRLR
Sequence of EZH2 (Q15022 whole entry partner): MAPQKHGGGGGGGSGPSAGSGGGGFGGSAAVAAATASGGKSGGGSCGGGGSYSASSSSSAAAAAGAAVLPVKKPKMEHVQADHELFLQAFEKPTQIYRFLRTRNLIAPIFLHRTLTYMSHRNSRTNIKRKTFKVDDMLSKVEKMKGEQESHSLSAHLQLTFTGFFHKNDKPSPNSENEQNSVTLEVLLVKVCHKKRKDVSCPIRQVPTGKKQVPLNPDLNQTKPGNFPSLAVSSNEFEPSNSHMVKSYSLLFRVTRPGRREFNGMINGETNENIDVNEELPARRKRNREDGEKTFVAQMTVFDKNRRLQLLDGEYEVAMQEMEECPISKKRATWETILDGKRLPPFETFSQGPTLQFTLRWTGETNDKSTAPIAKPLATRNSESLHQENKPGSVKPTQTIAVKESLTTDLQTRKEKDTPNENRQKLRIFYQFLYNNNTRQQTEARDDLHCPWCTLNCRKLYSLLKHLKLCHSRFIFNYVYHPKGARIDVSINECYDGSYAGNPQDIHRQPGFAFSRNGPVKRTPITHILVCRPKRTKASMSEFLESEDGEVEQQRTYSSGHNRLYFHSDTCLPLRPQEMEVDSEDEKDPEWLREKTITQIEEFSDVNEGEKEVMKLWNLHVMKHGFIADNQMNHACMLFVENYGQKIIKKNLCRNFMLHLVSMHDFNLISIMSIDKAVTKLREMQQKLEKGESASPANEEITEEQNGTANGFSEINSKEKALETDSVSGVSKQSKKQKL
Description: EZH2 Nuc BSA Brij 1.5 (IC50):
Assays were carried out by mixing rPRC2 together with biotinylated oligonucleosome substrates in the presence of the radio-labeled enzyme co-factor, S-adenosyl-L-methionine (^3H SAM) (Perkin Elmer) and monitoring the enzymatically mediated transfer of tritiated methyl groups from ^3H SAM to histone lysine residues. The amount of resulting tritiated methyl histone product was measured by first capturing the biotinylated oligonucleosomes in streptavidin (SAV) coated FlashPlates (Perkin Elmer), followed by a wash step to remove un-reacted ^3H SAM, and then counting on a TopCount NXT 384 well plate scintillation counter (Perkin Elmer). The final assay conditions for EZH2 were as follows: 50 mM Tris Buffer pH 8.5, 1 mM DTT, 69 μM Brij-35 detergent, 5.0 mM MgCl2, 0.1 mg/mL BSA, 0.2 μM ^3H SAM, 0.2 μM biotinylated oligonucleosomes, 3.6 μM H3K27me3 peptide and 2 nM EZH2.
Compound IC50 Measurements were Obtained as Follows:
Compounds were first dissolved in 100% DMSO as 10 mM stock solutions. Ten point dose response curves were generated by dispensing varying amounts of the 10 mM compound solution in 10 wells of the 384 well plate (Echo; Labcyte), pure DMSO was then used to backfill the wells to insure all wells have the same amount of DMSO. A 12.5 μL volume of the HMT enzyme, H3K27me3 peptide and oligonucleosome substrate in assay buffer was added to each well of the assay plate using a Multidrop Combi (ThermoFisher). Compounds were pre-incubated with the enzyme for 20 min, followed by initiation of the methyltransferase reaction by addition of 12.5 μL of ^3H SAM in assay buffer (final volume=25 μL). The final concentrations of compounds ranged from a top default concentration of 80 μM down to 0.16 μM in ten 2-fold dilution steps. Reactions were carried out for 60 minutes and quenched with 20 μL per well of 1.96 mM SAH, 50 mM Tris pH 8.5, 200 mM EDTA. Stopped reactions were transferred to SAV coated Flashplates (Perkin Elmer), incubated for 120 min, washed with a plate washer, and then read on the TopCount NXT (1.0 min/well) to measure the amount of methyl histone product formed during the reaction. The amount of methyl histone product was compared with the amount of product formed in the 0% and 100% inhibition control wells allowing the calculation of % Inhibition in the presence of the individual compounds at various concentrations. IC50's were computed using a 4 parameter fit non-linear curve fitting software package (XLFIT, part of the database package, ActivityBase (IDBS)) where the four parameters were IC50, Hill slope, pre-transitional baseline (0% INH), and post-transitional baseline (100% INH); with the latter two parameters being fixed to zero and 100%, respectively, by default.

H3K27me3 mark = test: H3K27me3 Alpha Hela Assay (AlphaLISA); assay type: cell-based; details: Hela cells, read-out: EZH2 Cell H3K27me3 Alpha HeLa (EC50 K27me3)
Description: EC50 Measurements for Inhibitors in HeLa Cell Assays
H3K27me3 Alpha Hela Assay (AlphaLISA). Ten different doses of each test compound (in a series of 3-fold dilutions) were plated in duplicate 384-well tissue culture treated plates (Catalog #781080; Greiner Bio One; Monroe, N.C.). Hela cells grown in culture were trypsinized and counted using a Countess® cell counter (Catalog # C10281; Life Technologies, Grand Island, N.Y.). Cell were diluted to 67,000 cells per mL in 10% DMEM (Catalog #10569-010 Life Technologies, Grand Island, N.Y.) and 15 μL (1,000 cells) were plated into each well using the Biotek MicroFlo™ Select Dispenser (BioTek Instruments, Inc. Vermont, USA),) of the 384-well plate. Plates were incubated at 37° C./5% CO2 for 72 hrs. One of the duplicate plates was processed for HeLa assay and the other for viability.
To the plate processed for AlphaLISA was added 5 μL per well Cell-Histone Lysis buffer (1×) (Catalog # AL009F1 Perkin Elmer; Waltham, Mass.) and the plate was incubated at RT for 30 minutes on a plate shaker with low speed (Model#4625-Q Thermo Scientific; Waltham, Mass.). Then, 10 μL per well Histone Extraction buffer (catalog # AL009F2; Perkin Elmer; Waltham, Mass.) was added and the plate further incubated at RT for 20 min on plate shaker with low speed. To each well was then added 10 μL per well of a 5× mix of anti-K27me3 acceptor beads plus Biotinylated anti-Histone H3 (C-ter) Antibody (diluted to 3 nM final) (Catalog #AL118 Perkin Elmer; Waltham, Mass.). Dilution of the acceptor beads and then anti-Histone H3 was with 1× Histone Detection buffer (Catalog # AL009F3 Perkin Elmer; Waltham, Mass.) which was produced diluted from the 10× stock provided. The plate was sealed with an aluminum plate sealer and incubated at 23° C. for 60 min. We then added 10 μL 5× solution of Streptavidin Donor beads (Catalog #6760002 Perkin Elmer; Waltham, Mass.) (20 μg/mL final in 1× Histone Detection Buffer), sealed the plate with Aluminum plate sealer and incubated at 23° C. for 30 min. The plates were then read using an EnVision-Alpha Reader (model #2104 Perkin Elmer; Waltham, Mass.).
Data from both assays was analyzed using Assay Assistant (Constellation Pharmaceuticals In-house product) and Activity Base (IDBS Ltd, Surrey, UK) template. Data files were imported to Assay Assistant and assay conditions were specified. A unique Analysis ID was created and the data files exported to Activity Base. An analysis template was created on Activity Base to measure dose-dependent inhibition of H3K27me3 mark and cell viability respectively. Readout of DMSO wells were used to normalize the data. Resulting curves were fitted using Activity base software Model 205 (IDBS Ltd, Surrey, UK). The data was checked for quality, validated and integrated in excel format using SARview (IDBS Ltd, Surrey, UK).

PRC2 containing wt EZH2 = target: T1, PRC2 containing wt EZH2 (Homo sapiens, UniProt Q15910); test: EZH2 pep BSA Brij 4.0 LowE (IC50): 3H-SAM incorporation into biotinylated H3 peptide; assay type: biochemical; details: 20 pM PRC2 wt EZH2, 0.9 μM 3H-SAM, biotinylated H3 peptide substrate, 2 μM H3K27me3 activating peptide
T1 construct: made in house
T1 sequence (Q15910 whole entry): as the sequence (Q15910 whole entry) above
T1 sequence (O75530 whole entry partner): as the sequence (O75530 whole entry partner) above
T1 sequence (Q15022 whole entry partner): as the sequence (Q15022 whole entry partner) above
T1 sequence (Q09028 whole entry partner): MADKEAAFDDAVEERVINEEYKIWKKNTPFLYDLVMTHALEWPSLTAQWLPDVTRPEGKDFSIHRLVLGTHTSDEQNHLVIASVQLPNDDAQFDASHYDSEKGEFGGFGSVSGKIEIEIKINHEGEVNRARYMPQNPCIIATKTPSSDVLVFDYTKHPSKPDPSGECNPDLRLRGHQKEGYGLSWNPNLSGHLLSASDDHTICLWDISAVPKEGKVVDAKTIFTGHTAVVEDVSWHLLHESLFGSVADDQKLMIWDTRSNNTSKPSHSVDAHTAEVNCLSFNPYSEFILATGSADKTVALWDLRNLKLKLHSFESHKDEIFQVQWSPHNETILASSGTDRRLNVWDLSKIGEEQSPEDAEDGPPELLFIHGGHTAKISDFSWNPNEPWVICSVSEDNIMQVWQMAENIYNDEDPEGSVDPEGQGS
T1 sequence (Q6ZN18 whole entry partner): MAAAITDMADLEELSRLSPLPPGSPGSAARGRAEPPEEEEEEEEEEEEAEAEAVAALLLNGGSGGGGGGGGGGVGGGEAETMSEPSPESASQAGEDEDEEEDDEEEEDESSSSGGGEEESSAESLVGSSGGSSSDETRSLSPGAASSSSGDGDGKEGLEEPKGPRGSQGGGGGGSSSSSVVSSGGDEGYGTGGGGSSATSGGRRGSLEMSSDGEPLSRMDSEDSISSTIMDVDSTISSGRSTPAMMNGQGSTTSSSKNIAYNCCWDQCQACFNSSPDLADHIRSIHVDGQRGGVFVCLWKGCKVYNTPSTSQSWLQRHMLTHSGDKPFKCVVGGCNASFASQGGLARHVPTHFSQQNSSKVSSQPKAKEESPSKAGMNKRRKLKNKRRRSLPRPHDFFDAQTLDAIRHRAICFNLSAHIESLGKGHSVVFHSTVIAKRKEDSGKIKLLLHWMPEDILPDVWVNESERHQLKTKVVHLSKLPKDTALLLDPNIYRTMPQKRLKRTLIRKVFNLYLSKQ
Description: EZH2 Pep BSA Brij 4.0 LowE (IC50):
Compound potencies were assessed through incorporation of ^3H-SAM into a biotinylated H3 peptide. Specifically, PRC2 containing wt EZH2 (20 pM), (pentameric complexes prepared in-house) was pre-incubated with ^3H-SAM (0.9 μM), 2 μM H3K27me3 activating peptide (H2N-RKQLATKAAR(Kme3)SAPATGGVKKP-amide) and compounds (as 10 point duplicate dose response titrations in DMSO, final assay 0.8% DMSO (v/v)) for 120 min in 50 mM Tris (pH 8.5), 1 mM DTT, 0.07 mM Brij-35, 0.1% BSA, and 0.8% DMSO in a total volume of 12.5 μl. Reaction was initiated with biotinylated H3 substrate peptide (H2N-RKQLATKAAR(Kme1)SAPATGGVKKP-NTPEGBiot) as a 2 μM stock in 12.5 μl of buffer and allowed to react at room temperature for 5 h. Quenching was accomplished by addition of 20 μl of STOP solution (50 mM Tris (pH 8.5), 200 mM EDTA, 2 mM SAH). 35 μl of the quenched solution was transferred to Streptavidin Flashplates, incubated overnight, washed, and read in a TopCount Reader (Perkin Elmer). IC50s were calculated relative to fully active and no enzyme control wells using non-linear least square four parameter fits.

[1] = EZH2 pep BSA Brij 4.0 LowE (IC50)
[2] = read-out: EZH2 pep BSA Brij 4.0 LowE (IC50)

Structure (SMILES)	IC50 (EZH2; EZH2 nuc BSA Brij 1.5 (IC50))	EC50 (H3K27me3 mark; 72 hrs)	IC50 (PRC2 containing wt EZH2; [1])	also measured
COc1cc(C)[nH]c(=O)c1CNC(=O)c1c(C)n(C(C)C2CCNc3ccccc32)c2ccccc12 (single isomer, unassigned) [Compound 1]	< 100 nM			EC50 (H3K27me3 mark; Homo sapiens, HeLa, 72 h): > 2000 nM
CCN1CCC(C(C)n2c(C)c(C(=O)NCc3c(OC)cc(C)[nH]c3=O)c3ccccc32)CC1C(F)(F)F (single isomer, unassigned) [Compound 9, 1-(1-(1-ethyl-2-(trifluoromethyl)piperidin-4-yl)ethyl)-N-((4-methoxy-6-methyl-2-oxo-1,2-dihydropyridin-3-yl)methyl)-2-methyl-1H-indole-3-carboxamide]	< 100 nM	> 2000 nM		
CCN1CCC(C(C)n2c(C)c(C(=O)NCc3c(OC)cc(C)[nH]c3=O)c3ccccc32)CC1C(F)(F)F (single isomer, unassigned) [Compound 10, 1-(1-(1-ethyl-2-(trifluoromethyl)piperidin-4-yl)ethyl)-N-((4-methoxy-6-methyl-2-oxo-1,2-dihydropyridin-3-yl)methyl)-2-methyl-1H-indole-3-carboxamide]		< 400 nM		IC50 (EZH2; read-out: EZH2 nuc BSA Brij 1.5 (IC50)): < 100 nM
COc1cc(C)[nH]c(=O)c1CNC(=O)c1c(C)n(C(C)C2CCNC(C(F)(F)F)C2)c2ccccc12 (single isomer, unassigned) [Compound 12, N-((4-methoxy-6-methyl-2-oxo-1,2-dihydropyridin-3-yl)methyl)-2-methyl-1-(1-(2-(trifluoromethyl)piperidin-4-yl)ethyl)-1H-indole-3-carboxamide]	< 100 nM			
COc1cc(C)[nH]c(=O)c1CNC(=O)c1c(C)n(C(C)C2CCN(C)C(C(F)(F)F)C2)c2ccccc12 (single isomer, unassigned) [Compound 13, N-((4-methoxy-6-methyl-2-oxo-1,2-dihydropyridin-3-yl)methyl)-2-methyl-1-(1-(1-methyl-2-(trifluoromethyl)piperidin-4-yl)ethyl)-1H-indole-3-carboxamide]	< 100 nM			EC50 (H3K27me3 mark; Homo sapiens, HeLa, 72 h): 400 to 2000 nM
Cc1cc(C)c(CNC(=O)c2c(C)n(C(C)C3CCNC(C(F)(F)F)C3)c3ccccc23)c(=O)[nH]1 (single isomer, unassigned) [Compound 16, N-((4,6-dimethyl-2-oxo-1,2-dihydropyridin-3-yl)methyl)-2-methyl-1-(1-(2-(trifluoromethyl)piperidin-4-yl)ethyl)-1H-indole-3-carboxamide]	< 100 nM			
COc1cc(C)[nH]c(=O)c1CNC(=O)c1c(C)n(C(C)C2CCN(C)c3ccccc32)c2ccccc12 (stereo not drawn) [Compound 3, N-((4-methoxy-6-methyl-2-oxo-1,2-dihydropyridin-3-yl)methyl)-2-methyl-1-(1-(1-methyl-1,2,3,4-tetrahydroquinolin-4-yl)ethyl)-1H-indole-3-carboxamide]	< 100 nM			
COc1cc(C)[nH]c(=O)c1CNC(=O)c1c(C)n(C(C)C2CCN(CC(C)(F)F)C(C)C2)c2ccccc12 (stereo not drawn) [Compound 72]		> 2000 nM	100 to 1000 nM	
COc1cc(C)[nH]c(=O)c1CNC(=O)c1c(C)n(C(C)C2CCN(CC(C)(F)F)C(C)C2)c2ccccc12 (stereo not drawn) [Compound 73]		< 400 nM	< 100 nM	
Cc1cc(C)c(CNC(=O)c2c(C)n(C(C)C3CCNC(CC(F)(F)F)C3)c3ccccc23)c(=O)[nH]1 (stereo not drawn) [Compound 84]				IC50 (PRC2 containing wt EZH2; [2]): < 100 nM; EC50 (H3K27me3 mark; Homo sapiens, HeLa, 72 h): 400 to 2000 nM
COc1cc(C)[nH]c(=O)c1CNC(=O)c1c(C)n(C(C)C2CCNC(CC(F)(F)F)C2)c2ccccc12 (stereo not drawn) [Compound 88]		> 2000 nM	< 100 nM	
COc1cc(C)[nH]c(=O)c1CNC(=O)c1c(C)n(C(C)C2CCNC(CC(F)(F)F)C2)c2ccccc12 (stereo not drawn) [Compound 89]		400 to 2000 nM	< 100 nM	
COc1cc(C)[nH]c(=O)c1CNC(=O)c1c(C)n(C(C)C2CCNC(CC(F)(F)F)C2)c2ccccc12 (stereo not drawn) [Compound 90]		400 to 2000 nM	< 100 nM	
CCS(=O)(=O)N1CCC(C(C)n2c(C)c(C(=O)NCc3c(OC)cc(C)[nH]c3=O)c3ccccc32)CC1C (stereo not drawn) [Compound 91]			< 100 nM	EC50 (H3K27me3 mark; Homo sapiens, HeLa, 72 h): > 2000 nM
COc1cc(C)[nH]c(=O)c1CNC(=O)c1c(C)n(C(C)C2CCN(C)C(c3cccc(C(=O)O)c3)C2)c2ccccc12 (stereo not drawn) [Compound 92]		400 to 2000 nM		IC50 (PRC2 containing wt EZH2; [2]): < 100 nM
COc1cc(C)[nH]c(=O)c1CNC(=O)c1c(C)n(C(C)C2CCN(C)C(c3cccc(C#N)c3)C2)c2ccccc12 (stereo not drawn) [Compound 95]			< 100 nM	EC50 (H3K27me3 mark; Homo sapiens, HeLa, 72 h): 400 to 2000 nM
COc1cc(C)[nH]c(=O)c1CNC(=O)c1c(C)n(C(C)C2CCN(C)C(c3cccc(C#N)c3)C2)c2ccccc12 (stereo not drawn) [Compound 96]		400 to 2000 nM		IC50 (PRC2 containing wt EZH2; [2]): < 100 nM
COc1cc(C)[nH]c(=O)c1CNC(=O)c1c(C)n(C(C)C2CCN(C)C(c3cccc(C(=O)O)c3)C2)c2ccccc12 (stereo not drawn) [Compound 97]		> 2000 nM	< 100 nM	
